{
  "source": "patent US9307765B2",
  "about": "“Selective weed control using D-napropamide” (UPL Limited, priority 2013, dated 2016)",
  "format_in_all_cases": "in vivo",
  "key": {"Ranunculus repens": {"system": "Ranunculus repens", "test": "Field trial on strawberries, pre-emergence, visual % control", "experimental": "(§1) Field trials were conducted on various moncotyledonous weeds and dicotyledonous weeds and the effect of D-isomer of Napropamide was studied to understand the selective and effective control of dicotyledonous weeds over monocotyledonous weeds. The effect of D-isomer of Napropamide in comparison to racemic napropramide and untreated was studied, which is concluded hereinbelow:\n(§2) Several small plot replicated trials were carried out to evaluate and/or compare the efficacy of D-Napropamide against a range of indicated annual broadleaved and grass weed species in the indicated crops. No problems were encountered during mixing or application of any of the product formulations or tank mixtures under test.\n(§3) In each of the reported data, the homogeneity of variance was tested by Bartlett's test. Wherever this test indicated no homogeneity of variance, the transformed values were used for analysis of variance. Assessment data was then analyzed using a two-way analysis of variance (ANOVA) on untransformed and transformed data. The probability of no significant differences occurring between treatment means was calculated as the F probability value (p(F)). A mean comparison test was only performed and reported when the treatment of F that was calculated during analysis of variance was significant at the observed significance level specified for the mean comparison test. Where the data was transformed, treatment means in the reports were presented in their detransformed state, with the appropriate letter test and mean descriptions (LSD and standard deviation) derived from the transformed ANOVA.\nTrial was carried out on strawberries to evaluate the efficacy and selectivity of D-Napropamide and equivalent rate of Devrinol (Napropramide) applied pre-emergence. […] The percentage control of D-isomer of Napropamide and Devrinol was assessed in comparison to the untreated after 224 days after application."}, "Matricaria sp.": {"system": "Matricaria sp.", "test": "Field trial in winter oilseed rape, pre-emergence, % control and ground cover", "experimental": "as §1, §2, §3\n(§4) Trials were conducted to evaluate the selectivity and efficacy of D-isomer of Napropamide when applied pre-emergence to oilseed rape crop. The % control of weed was assessed at regular intervals."}, "Triticum aestivum": {"system": "Triticum aestivum", "test": "Field trial in winter oilseed rape, pre-emergence, % control", "experimental": "as §1, §2, §3, §4"}, "Cirsium arvense": {"system": "Cirsium arvense", "test": "Field trial in winter oilseed rape, pre-emergence, % control", "experimental": "as §1, §2, §3, §4"}, "Aperaspica-venti": {"system": "Aperaspica-venti", "test": "Field trial in winter oilseed rape, pre-emergence, % control", "experimental": "as §1, §2, §3, §4"}, "Veronica persica": {"system": "Veronica persica", "test": "Field trial in winter oilseed rape, pre-emergence, % control", "experimental": "as §1, §2, §3, §4"}},
  "data": [
    {"smiles": "CCN(CC)C(=O)[C@@H](C)Oc1cccc2ccccc12", "note": "[D-Napropamide, D-(−)-N,N-diethyl-2-(α-naphthoxy)propionamide]", "values": [
      {"measurement": "Percentage Control at 224 DAA", "setting": "Ranunculus repens; 3.0 L/Ha of 450 g/L formulation", "value": 66.7, "unit": "%"},
      {"measurement": "Percentage Control at 224 DAA", "setting": "Ranunculus repens; 4.2 L/Ha of 450 g/L formulation", "value": 100, "unit": "%"},
      {"measurement": "Percentage Control at 224 DAA", "setting": "Ranunculus repens; 8.5 L/Ha of 450 g/L formulation", "value": 100, "unit": "%"},
      {"measurement": "Conclusion: efficacy in control vis-à-vis Napropamide at an equivalent dosage", "setting": "Ranunculus repens; Ranunculus repens", "value": "surprising efficacy"},
      {"measurement": "Percentage ground cover %, value in brackets (untreated 0.0%)", "setting": "Matricaria sp.; 450 g/L @ 2.0 L/Ha", "value": "(99.3%)"},
      {"measurement": "Percentage Control at 49 DAA", "setting": "Matricaria sp.; 450 g/L @ 2.0 L/Ha, oilseed rape", "value": 97.00, "unit": "%"},
      {"measurement": "Percentage ground cover %", "setting": "Matricaria sp.; 450 g/L @ 2.0 L/Ha, untreated 4.50", "value": 0.30, "unit": "%"},
      {"measurement": "Conclusion: efficacy in control vis-à-vis Napropamide at an equivalent dosage", "setting": "Matricaria sp.; Matricaria sp., dicot, oilseed rape", "value": "superior efficacy"},
      {"measurement": "Percentage Control at 51 DAA", "setting": "Triticum aestivum; 450 g/L @ 1.4 L/Ha", "value": 0.00, "unit": "%"},
      {"measurement": "Percentage Control at 72 DAA", "setting": "Triticum aestivum; 450 g/L @ 1.4 L/Ha", "value": 0.00, "unit": "%"},
      {"measurement": "Percentage Control at 51 DAA", "setting": "Triticum aestivum; 450 g/L @ 1.6 L/Ha", "value": 0.00, "unit": "%"},
      {"measurement": "Percentage Control at 72 DAA", "setting": "Triticum aestivum; 450 g/L @ 1.6 L/Ha", "value": 0.00, "unit": "%"},
      {"measurement": "Percentage Control at 51 DAA", "setting": "Triticum aestivum; 450 g/L @ 1.8 L/Ha", "value": 0.00, "unit": "%"},
      {"measurement": "Percentage Control at 72 DAA", "setting": "Triticum aestivum; 450 g/L @ 1.8 L/Ha", "value": 0.00, "unit": "%"},
      {"measurement": "Percentage Control at 51 DAA", "setting": "Triticum aestivum; 450 g/L @ 2.0 L/Ha", "value": 0.00, "unit": "%"},
      {"measurement": "Percentage Control at 72 DAA", "setting": "Triticum aestivum; 450 g/L @ 2.0 L/Ha", "value": 0.00, "unit": "%"},
      {"measurement": "Conclusion: control of the weed", "setting": "Triticum aestivum; Triticum aestivum, monocot", "value": "negligible control"},
      {"measurement": "Percentage Control at 51 DAA", "setting": "Cirsium arvense; 450 g/L @ 1.6 L/Ha", "value": 100.00, "unit": "%"},
      {"measurement": "Conclusion: control of the weed at equivalent dosage", "setting": "Cirsium arvense; Cirsium arvense, dicot", "value": "superior control"},
      {"measurement": "Percentage Control at 63 DAA", "setting": "Aperaspica-venti; 450 g/L @ 1.4 L/Ha", "value": 35.00, "unit": "%"},
      {"measurement": "Percentage Control at 63 DAA", "setting": "Aperaspica-venti; 450 g/L @ 1.6 L/Ha", "value": 58.75, "unit": "%"},
      {"measurement": "Percentage Control at 63 DAA", "setting": "Aperaspica-venti; 450 g/L @ 1.6 L/Ha, listed as D Napropamide", "value": 52.50, "unit": "%"},
      {"measurement": "Conclusion: efficacy in control vis-à-vis Napropamide at an equivalent dosage", "setting": "Aperaspica-venti; Aperaspica-venti, monocot", "value": "poor efficacy"},
      {"measurement": "Percentage Control at 63 DAA", "setting": "Veronica persica; 450 g/L @ 1.4 L/Ha", "value": 100.00, "unit": "%"},
      {"measurement": "Percentage Control at 63 DAA", "setting": "Veronica persica; 450 g/L @ 1.6 L/Ha", "value": 100.00, "unit": "%"},
      {"measurement": "Conclusion: efficacy in control vis-à-vis Napropamide at an equivalent dosage", "setting": "Veronica persica; Veronica persica, dicot", "value": "superior efficacy"}
    ]}
  ]
}
